From patent US20260285850A1, “SUBSTITUTED OXAZOLIDINONES AND IMIDAZOLINONES AS HERBICIDES” (FMC CORPORATION, priority 2023, published 2026)

Legend:
Assay type in all cases: in vivo
[1] = system: barnyardgrass (Echinochloa crusgalli); assay: Test B flooded paddy test, visual plant response rating 0-100; settings: 250 g ai/ha, Flood, applied to paddy water, evaluated after 13 days
In short: (§1)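 Plants were grown to the 2-leaf stage, then pots were flooded to 3 cm above the soil and test compounds were applied directly into the paddy water. Water depth was held there throughout; after 13 days in a greenhouse, injury was scored visually against untreated controls.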

[2] = system: sedge, umbrella (small-flower umbrella sedge, Cyperus difformis); assay: as above; settings: 250 g ai/ha, Flood, applied to paddy water, evaluated after 13 days
In short: as §1

rice (Oryza sativa) = assay: as above; settings: 250 g ai/ha, Flood, applied to paddy water, evaluated after 13 days
In short: as §1

[3] = system: ducksalad (Heteranthera limosa); assay: as above; settings: 250 g ai/ha, Flood, applied to paddy water, evaluated after 13 days
In short: as §1

[4] = system: barnyardgrass (Echinochloa crus-galli); assay: Test A preemergence soil spray, visual injury rating 0-100; settings: 10 days, 0 = no effect, 100 = complete control
In short: (§2)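 Greenhouse test: loam/sand pots received a surfactant-containing formulation, as a preemergence directed soil spray or a postemergence spray on young plants. Injury was judged visually at day 10 relative to untreated controls.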

[5] = system: green foxtail (Setaria viridis); assay: as above; settings: 10 days, 0 = no effect, 100 = complete control
In short: as §2

soybean (Glycine max) [6] = assay: as above; settings: 10 days, 0 = no effect, 100 = complete control
In short: as §2

[7] = system: oat, wild (wild oat, Avena fatua); assay: as above; settings: 10 days, 0 = no effect, 100 = complete control
In short: as §2

[8] = system: ragweed (common ragweed, Ambrosia artemisiifolia); assay: as above; settings: 10 days, 0 = no effect, 100 = complete control
In short: as §2

corn (Zea mays) [9] = assay: as above; settings: 10 days, 0 = no effect, 100 = complete control
In short: as §2

kochia (Bassia scoparia) [10] = assay: as above; settings: 10 days, 0 = no effect, 100 = complete control
In short: as §2

[11] = system: palmer (palmer amaranth, palmer pigweed, Amaranthus palmeri); assay: as above; settings: 10 days, 0 = no effect, 100 = complete control
In short: as §2

[12] = system: blackgrass (Alopecurus myosuroides); assay: as above; settings: 10 days, 0 = no effect, 100 = complete control
In short: as §2

[13] = system: ryegrass, Italian (italian ryegrass, Lolium multiflorum); assay: as above; settings: 10 days, 0 = no effect, 100 = complete control
In short: as §2

[14] = system: wheat (Triticum aestivum); assay: as above; settings: 10 days, 0 = no effect, 100 = complete control
In short: as §2

[15] = system: barnyardgrass (Echinochloa crus-galli); assay: Test A postemergence application, visual injury rating 0-100; settings: 10 days
In short: as §2

[16] = system: green foxtail (Setaria viridis); assay: as above; settings: 10 days
In short: as §2

soybean (Glycine max) [17] = assay: as above; settings: 10 days
In short: as §2

[18] = system: oat, wild (wild oat, Avena fatua); assay: as above; settings: 10 days
In short: as §2

[19] = system: horseweed (Erigeron canadensis); assay: as above; settings: 10 days
In short: as §2

[20] = system: ragweed (common ragweed, Ambrosia artemisiifolia); assay: as above; settings: 10 days
In short: as §2

corn (Zea mays) [21] = assay: as above; settings: 10 days
In short: as §2

kochia (Bassia scoparia) [22] = assay: as above; settings: 10 days
In short: as §2

[23] = system: palmer (palmer amaranth, palmer pigweed, Amaranthus palmeri); assay: as above; settings: 10 days
In short: as §2

[24] = system: blackgrass (Alopecurus myosuroides); assay: as above; settings: 10 days
In short: as §2

[25] = system: ryegrass, Italian (italian ryegrass, Lolium multiflorum); assay: as above; settings: 10 days
In short: as §2

[26] = system: wheat (Triticum aestivum); assay: as above; settings: 10 days
In short: as §2

[27] = 31 g ai/ha, postemergence, 0 = no effect, 100 = complete control
[28] = Postemergence, 125 g ai/ha, 0 is no effect, 100 is complete control

SMILES: CC1(C(=O)NC2CC=C(C(=O)O)C2)CN(c2cc(F)cc(F)c2)C(=O)O1 [Compound 38, (4S)-4-[[[3-(3,5-difluorophenyl)-5-methyl-2-oxo-5-oxazolidinyl]carbonyl]amino]-1-cyclopentene-1-carboxylate acid]
- Plant response rating, Barnyardgrass (0 to 100 scale, 0 is no effect and 100 is complete control) [1]: 55
- Plant response rating, Sedge, Umbrella (0 to 100 scale, 0 is no effect and 100 is complete control) [2]: 95
- Plant response rating, Rice (0 to 100 scale, 0 is no effect and 100 is complete control) (rice (Oryza sativa)): 70
- Plant response rating, Ducksalad (0 to 100 scale, 0 is no effect and 100 is complete control) [3]: 55
- Barnyardgrass plant response rating (0-100) ([4]; 31 g ai/ha): 0
- Barnyardgrass plant response rating (0 to 100 scale) ([4]; 125 g ai/ha): 40
- Foxtail, Green plant response rating (0-100) ([5]; 31 g ai/ha): 0
- Foxtail, Green plant response rating (0 to 100 scale) ([5]; 125 g ai/ha): 20
- Soybean plant response rating (0-100) (soybean (Glycine max) [6]; 31 g ai/ha): 10
- Soybean plant response rating (0 to 100 scale) (soybean (Glycine max) [6]; 125 g ai/ha): 80
- Oat, Wild plant response rating (0-100) ([7]; 31 g ai/ha): 0
- Oat, Wild plant response rating (0 to 100 scale) ([7]; 125 g ai/ha): 60
- Ragweed plant response rating (0-100) ([8]; 31 g ai/ha): 0
- Ragweed plant response rating (0 to 100 scale) ([8]; 125 g ai/ha): 0
- Corn plant response rating (0-100) (corn (Zea mays) [9]; 31 g ai/ha): 0
- Corn plant response rating (0 to 100 scale) (corn (Zea mays) [9]; 125 g ai/ha): 90
- Kochia plant response rating (0-100) (kochia (Bassia scoparia) [10]; 31 g ai/ha): 0
- Kochia plant response rating (0 to 100 scale) (kochia (Bassia scoparia) [10]; 125 g ai/ha): 20
- Amaranth, Palmer plant response rating (0-100) ([11]; 31 g ai/ha): 0
- Amaranth, Palmer plant response rating (0 to 100 scale) ([11]; 125 g ai/ha): 70
- Blackgrass plant response rating (0-100) ([12]; 31 g ai/ha): 0
- Blackgrass plant response rating (0 to 100 scale) ([12]; 125 g ai/ha): 50
- Ryegrass, Italian plant response rating (0-100) ([13]; 31 g ai/ha): 0
- Ryegrass, Italian plant response rating (0 to 100 scale) ([13]; 125 g ai/ha): 90
- Wheat plant response rating (0-100) ([14]; 31 g ai/ha): 40
- Wheat plant response rating (0 to 100 scale) ([14]; 125 g ai/ha): 90
- Barnyardgrass plant response rating (0-100) [15, 27]: 90
- Barnyardgrass plant response rating (0 to 100 scale) [15, 28]: 100
- Foxtail, Green plant response rating (0-100) [16, 27]: 90
- Foxtail, Green plant response rating (0 to 100 scale) [16, 28]: 90
- Soybean plant response rating (0-100) (soybean (Glycine max) [17]; [27]): 60
- Soybean plant response rating (0 to 100 scale) (soybean (Glycine max) [17]; [28]): 80
- Oat, Wild plant response rating (0-100) [18, 27]: 90
- Oat, Wild plant response rating (0 to 100 scale) [18, 28]: 90
- Horseweed plant response rating (0-100) [19, 27]: 30
- Horseweed plant response rating (0 to 100 scale) [19, 28]: 70
- Ragweed plant response rating (0-100) [20, 27]: 20
- Ragweed plant response rating (0 to 100 scale) [20, 28]: 50
- Corn plant response rating (0-100) (corn (Zea mays) [21]; [27]): 90
- Corn plant response rating (0 to 100 scale) (corn (Zea mays) [21]; [28]): 100
- Kochia plant response rating (0-100) (kochia (Bassia scoparia) [22]; [27]): 80
- Kochia plant response rating (0 to 100 scale) (kochia (Bassia scoparia) [22]; [28]): 80
- Amaranth, Palmer plant response rating (0-100) [23, 27]: 40
- Amaranth, Palmer / Pigweed, Palmer plant response rating (0 to 100 scale) [23, 28]: 100
- Blackgrass plant response rating (0-100) [24, 27]: 40
- Blackgrass plant response rating (0 to 100 scale) [24, 28]: 90
- Ryegrass, Italian plant response rating (0-100) [25, 27]: 70
- Ryegrass, Italian plant response rating (0 to 100 scale) [25, 28]: 90
- Wheat plant response rating (0-100) [26, 27]: 90
- Wheat plant response rating (0 to 100 scale) [26, 28]: 90
